Consider one molecule from patent US20140221499A1, “NOVEL RODENT CONTROL AGENTS AND USES THEREOF” (priority 2011, published 2014).

The target of one test is TAAR1 (Mus musculus, UniProt Q923Y8). Kind of test: TAAR1 reporter gene assay. It is filed as cell-based. On the procedure:
HEK293 cells were co-transfected with TAAR expression plasmids and a cAMPdependent reporter gene encoding secreted alkaline phosphatase (CRE-SEAP). Transfected cells were incubated with urine extracts from different mammalian species, and phosphatase activity was quantified with a fluorescent substrate as a reporter for TAAR activation. […] Responses to predator odors were not observed in control cells transfected with reporter gene alone. Three other TAARs-TAAR7f, TAAR8c, and TAAR9-detected natural products common to urine of numerous mammalian species, including mouse, rat, human, and carnivores (FIG. 1B, FIG. 11). However, these receptors detect carnivore and non-carnivore urines with similar sensitivity. We reasoned that TAAR4 detected a specific chemical enriched in predator urine, and that this cue can function as a kairomone. […] Basic dichloromethane extracts of bobcat urine were separated by silica gel chromatography, and fractions analyzed with the reporter gene assay (FIG. 2A). Several chromatography fractions containing the TAAR4 activator were obtained and analyzed by mass spectrometry (FIG. 2B).
TAAR functional assays. […] SEAP activity is measured as fluorescence resulting from dephosphorylation of a substrate, 4-methylumbelliferyl phosphate. Fluorescence values were obtained using an EnVision plate reader (Perkin Elmer) and are reported directly without normalization. […]

A further test relates to Sprague-Dawley rats. Description: Open field odor avoidance. The class given is in vivo, rat. The note with it: ten minute exposure, 12 animals ±SEM; 1 ml urine or 5 μl amine. On the procedure: We next examined behavioral responses of rodents to 2-phenylethylamine. […] Behaviors of rats in a square-shaped arena were recorded and analyzed following placement of test stimuli in a pseudorandom corner (FIG. 5A). […] Thus, 2-phenylethylamine, in the absence of other predator odor cues, was sufficient to evoke rat avoidance behavior.
Open field behavioral analysis. Rat behavioral responses to odors in the open field were measured as described previously (Fendt M (2006) Exposure to urine of canids and felids, but not of herbivores, induces defensive behavior in laboratory rats. Journal of chemical ecology 32(12):2617-2627) with the following modifications. Adult Sprague-Dawley rats (240-340 g; Janvier, Le Genest St. Isle, France) were placed in the center of a 45 cm×45 cm Plexiglass arena (TSE Systems, Bad Homburg, Germany) equipped with infrared sensors (distance 14 mm, illumination 80-120 lux). The arena contained glass dishes (36 mm) in each corner, with one dish containing test stimuli. Prior to testing, animals were habituated to the arena by introducing them for three consecutive days. […] Location of the rats was automatically recorded using the infrared detectors and analyzed (TSE Systems software). Statistical significance was measured using Wilcoxon Signed Test (**p<0.01; comparison with chance level (25%)). […]

Sequence of TAAR1 (Q923Y8 whole entry, the tested form may be a part): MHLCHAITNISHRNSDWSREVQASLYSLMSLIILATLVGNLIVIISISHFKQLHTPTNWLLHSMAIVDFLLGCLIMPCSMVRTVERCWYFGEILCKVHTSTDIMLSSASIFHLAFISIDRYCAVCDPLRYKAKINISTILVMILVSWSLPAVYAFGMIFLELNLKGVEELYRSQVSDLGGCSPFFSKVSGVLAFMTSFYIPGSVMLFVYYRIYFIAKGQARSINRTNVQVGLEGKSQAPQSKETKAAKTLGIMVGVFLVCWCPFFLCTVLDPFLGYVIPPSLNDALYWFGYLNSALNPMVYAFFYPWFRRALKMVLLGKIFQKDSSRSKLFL

As for `NCCc1ccccc1` [2-phenylethylamine], at TAAR1, the TAAR1 activation entry is recorded as “did activate TAAR1”. In addition, the “percentage of time rats are located in the odor quadrant” value in the test with Sprague-Dawley rats is 8.0±2.0%.
